Data as given in US20090053168A1, “TREATMENTS OF B-CELL PROLIFERATIVE DISORDERS” (priority 2007, published 2009).

Columns and labels:
[1] = system: GA-10 (Burkitt's lymphoma) cells; test: Anti-proliferation assay (ATPLite, 72 h), GA-10; assay type: cell-based; conditions: x dexamethasone
[2] = system: Farage (non-Hodgkin's B cell lymphoma) cells; test: Anti-proliferation assay (ATPLite, 72 h), Farage; assay type: cell-based; conditions: x dexamethasone
MM.1S cells = test: Anti-proliferation assay (ATPLite, 72 h), MM.1S; conditions: for synergy score: in combination with CGS-21680, MM.1S
OPM2 cells = test: Anti-proliferation assay (ATPLite, 72 h), OPM2; assay type: cell-based, human; conditions: for synergy score: in combination with CGS-21680, OPM-8
[3] = system: mantle cell lymphoma cell line Mino; test: Anti-proliferation assay (ATPLite, 72 h), Mino; assay type: cell-based, human
Procedure: All of the cell lines were cultured in RPMI-1640 media supplemented with 10% FBS except OCI Ly10 cells (IMDM media supplemented with 20% human serum). The ANBL-6 cell line culture media also contained 10 ng/ml IL-6. MM.1S, MM.1R, SU-DHL6, Karpas 422, and OCI ly10 cells were provided by the Dana Farber Cancer Institute. ANBL-6 cells were provided by Bob Orlowsli (M.D. Anderson Cancer Research Center). H929, RPMI-8226, GA-10, Farage, Mino, JVM-13, Pfeiffer, Toledo, and Kusami-1 cells were from ATCC (Cat #'s CCL-155, CRL-9068, CRL-2392 CRL-2630, CRL-3000, CRL-3003, CRL-2632, CRL-2631, and CRL-2724 respectively). MOLP-8, OPM2, EJM, and KSM-12-PE cells were from DSMZ.
Compounds were prepared in DMSO at 1000× the highest desired concentration. Master plates were generated consisting of serially diluted compounds in 2- or 3-fold dilutions in 384-well format. For single agent dose response curves, the master plates consisted of 9 individual compounds at 12 concentrations in 2- or 3-fold dilutions. For combination matrices, master plates consisted of individual compounds at 6 or 9 concentrations at 2- or 3-fold dilutions.
The average untreated well value (avg. untreated wells) is the arithmetic mean of 40 wells from the same assay plate treated with vehicle alone. Negative inhibition values result from local variations in treated wells as compared to untreated wells.
The uncertainty of each fitted parameter was estimated from the range over which the change in reduced chi-squared was less than one, or less than minimum reduced chi-squared if that minimum exceeded one, to allow for underestimated σI errors.
Single agent curve data were used to define a dilution series for each compound to, be used for combination screening in a 6×6 matrix format. […] For compounds with no detectable single agent activity, a dilution factor of 4 was used, starting from the highest achievable concentration.
The Loewe additivity model was used to quantify combination effects. Combinations were ranked initially by Additivity Excess Volume, which is defined as ADD Volume=ΣCX, CY(Idata−ILoewe). where ILoewe(CX,CY) is the inhibition that satisfies (CX/ECX)+(CY/ECY)=1, and ECX,Y are the effective concentrations at ILoewe for the single agent curves. A “Synergy Score” was also used, where the Synergy Score S=log fX log fY ΣIdata (Idata−ILoewe), summed over all non-single-agent concentration pairs, and where log fX,Y is the natural logarithm of the dilution factors used for each single agent.

ANBL-6 cells = test: Anti-proliferation assay (ATPLite, 72 h), ANBL-6; assay type: cell-based; conditions: in combination with CGS-21680
MOLP-8 cells = test: Anti-proliferation assay (ATPLite, 72 h), MOLP-8; assay type: cell-based; conditions: in combination with CGS-21680
EJM cells = test: Anti-proliferation assay (ATPLite, 72 h), EJM; assay type: cell-based; conditions: in combination with CGS-21680
KSM-12-PE cells = test: Anti-proliferation assay (ATPLite, 72 h), KSM-12-PE; assay type: cell-based; conditions: in combination with CGS-21680; KSM-12-PE

Row | SMILES | synergy score (ANBL-6 cells) | synergy score (OPM2 cells) | synergy score (MOLP-8 cells) | synergy score (MM.1S cells) | synergy score (EJM cells) | synergy score (KSM-12-PE cells) | further results
1 | CNC(=O)[C@H]1O[C@@H](n2cnc3c(NCc4cccc(I)c4)ncnc32)[C@H](O)[C@@H]1O [IB-MECA, N^6-(3-iodobenzyl)-5′-N-methylcarboxamidoadenosine] |  |  |  |  |  |  | synergy score [1]: 2.23; synergy score [2]: 2.91; activity and synergy in antiproliferation assays (MM.1S cells; RPMI-8226, H929, MM.1S and MM.1R MM cell lines): active and synergistic
2 | CC(/C=C/C(=O)NO)=C\[C@@H](C)C(=O)c1ccc(N(C)C)cc1 [Trichostatin A] |  |  |  |  |  |  | percent inhibition of cell proliferation (OPM2 cells; Trichostatin A 0.0063 μM alone): 13%; percent inhibition of cell proliferation (OPM2 cells; Trichostatin A 0.025 μM alone): 48%; percent inhibition of cell proliferation (OPM2 cells; Trichostatin A 0.05 μM alone): 76%; percent inhibition of cell proliferation (OPM2 cells; Trichostatin A 0.1 μM alone): 99%; percent inhibition of cell proliferation ([3]; Trichostatin A 0.0063 μM alone): 24%; percent inhibition of cell proliferation ([3]; Trichostatin A 0.025 μM alone): 78%; percent inhibition of cell proliferation ([3]; Trichostatin A 0.05 μM alone): 100%; percent inhibition of cell proliferation ([3]; Trichostatin A 0.1 μM alone): 100%
3 | COc1cccc2c1C(=O)c1c(O)c3c(c(O)c1C2=O)C[C@@](O)(C(=O)CO)C[C@@H]3O[C@H]1C[C@H](N)[C@H](O)[C@H](C)O1 [doxorubicin] | 2.54 | 0.46 | 1.16 | 1.65 | 1.21 | 0.81 | 
4 | Nc1cccc2c1CN(C1CCC(=O)NC1=O)C2=O (centres unmarked) [lenalidomide] | 1.45 | 1.36 | 1.65 | 4.87 | 0.32 | 0.83 | 
